Laboratory results: ChEMBL document CHEMBL1201862, “PubChem BioAssay data set” (2004)
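Values below derive from 48-hour exposures of cells grown in 96-well plates, with endpoints linearly interpolated between the two concentrations bracketing the appropriate inhibition level. GI50 marks 50% less growth.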 Active and inactive are the calls of the source. Cut-off read from the data, not from the text of the source: active = GI50 up to about 1.1 µM and inactive = higher.

What was measured:
Assay in all cases: NCI-60 cell line screen, 48 h
SK-MEL-28 = test system: SK-MEL-28
Malme-3M = test system: Malme-3M
SF-539 = test system: SF-539
PC-3 = test system: PC-3
T47D = test system: T47D
MDA-MB-231 = test system: MDA-MB-231
HT-29 = test system: HT-29
IGROV-1 = test system: IGROV-1
TK-10 = test system: TK-10
HCT-15 = test system: HCT-15
A498 = test system: A498
MDA-MB-435 = test system: MDA-MB-435
A549 = test system: A549
SK-MEL-5 = test system: SK-MEL-5
DU-145 = test system: DU-145
MDA-N = test system: MDA-N
OVCAR-4 = test system: OVCAR-4
SNB-75 = test system: SNB-75
RPMI-8226 = test system: RPMI-8226
SR = test system: SR

Row | SMILES | GI50 (SK-MEL-28) | GI50 (Malme-3M) | GI50 (SF-539) | GI50 (PC-3) | GI50 (T47D) | GI50 (MDA-MB-231) | GI50 (HT-29) | GI50 (IGROV-1) | GI50 (TK-10) | GI50 (HCT-15) [µM] | GI50 (A498) | GI50 (MDA-MB-435) | GI50 (A549) | GI50 (SK-MEL-5) | GI50 (DU-145) | GI50 (MDA-N) | GI50 (OVCAR-4) | GI50 (SNB-75) | GI50 (RPMI-8226) | GI50 (SR)
1 | Cc1ccc(C2=Nc3c(c(C)nn3-c3ccccc3)N=C(C(=O)O)C2)cc1 | > 10 µM (inactive) | > 10 µM (inactive) | > 10 µM (inactive) | > 10 µM (inactive) | > 10 µM (inactive) | > 10 µM (inactive) | > 10 µM (inactive) | > 10 µM (inactive) | > 10 µM (inactive) | > 10 | > 10 µM (inactive) | > 10 µM (inactive) | > 10 µM (inactive) | > 10 µM (inactive) | > 10 µM (inactive) | > 10 µM (inactive) | > 10 µM (inactive) | > 10 µM (inactive) | – | –
2 | CC(C)(/C=N/O)/[N+]([O-])=C/c1ccccc1 | > 100 µM (inactive) | > 100 µM (inactive) | > 100 µM (inactive) | > 100 µM (inactive) | > 100 µM (inactive) | > 100 µM (inactive) | > 100 µM (inactive) | > 100 µM (inactive) | > 100 µM (inactive) | > 100 | – | > 100 µM (inactive) | > 100 µM (inactive) | > 100 µM (inactive) | > 100 µM (inactive) | > 100 µM (inactive) | > 100 µM (inactive) | > 100 µM (inactive) | > 100 µM (inactive) | –
3 | C(/C=N/N=C1NCCCN1)=N\N=C1NCCCN1 | > 100 µM (inactive) | > 100 µM (inactive) | > 100 µM (inactive) | > 100 µM (inactive) | > 100 µM (inactive) | > 100 µM (inactive) | > 100 µM (inactive) | > 100 µM (inactive) | > 10 µM (inactive) | – | – | > 100 µM (inactive) | > 100 µM (inactive) | > 100 µM (inactive) | – | > 100 µM (inactive) | > 100 µM (inactive) | > 100 µM (inactive) | – | > 100 µM (inactive)
4 | CCSc1nc(N2CCOCC2)c2cn[nH]c2n1 | 88.5 µM (inactive) | > 100 µM (inactive) | > 100 µM (inactive) | 22.1 µM (inactive) | 9.73 µM (inactive) | > 100 µM (inactive) | > 100 µM (inactive) | 9.64 µM (inactive) | 47.8 µM (inactive) | 65.5 | 4.6 µM (inactive) | 41.8 µM (inactive) | 76.9 µM (inactive) | 50.6 µM (inactive) | > 100 µM (inactive) | – | 62.5 µM (inactive) | 71.1 µM (inactive) | 37.5 µM (inactive) | 56.1 µM (inactive)
5 | COC(=O)c1cc(C)ccc1/C=C1\Cc2cccc(C)c2C1=O | 62.1 µM (inactive) | 20.5 µM (inactive) | 67.3 µM (inactive) | 8.04 µM (inactive) | 6.68 µM (inactive) | 26.7 µM (inactive) | 12.8 µM (inactive) | 76.9 µM (inactive) | > 100 µM (inactive) | 18.8 | 46.3 µM (inactive) | – | 28.2 µM (inactive) | 7.06 µM (inactive) | 65.3 µM (inactive) | 11.1 µM (inactive) | 68.5 µM (inactive) | 35.1 µM (inactive) | 28.8 µM (inactive) | 24.7 µM (inactive)
6 | Cc1ccc2c(n1)C(=O)c1ccccc1C2=O | 51.5 µM (inactive) | 9.35 µM (inactive) | > 56.5 µM (inactive) | 23.9 µM (inactive) | 30.3 µM (inactive) | 23.3 µM (inactive) | 23.5 µM (inactive) | 24.3 µM (inactive) | 71.3 µM (inactive) | 25.8 | 31.6 µM (inactive) | 18.2 µM (inactive) | 21.2 µM (inactive) | 6.84 µM (inactive) | 17.3 µM (inactive) | > 45.6 µM (inactive) | 18.7 µM (inactive) | 29.8 µM (inactive) | 32.6 µM (inactive) | –
7 | N#CCCN(CCC#N)c1ccc(/C=C2\N=C(c3ccccc3)N(c3ccccn3)C2=O)cc1 | > 100 µM (inactive) | > 100 µM (inactive) | > 100 µM (inactive) | > 100 µM (inactive) | > 100 µM (inactive) | > 100 µM (inactive) | > 100 µM (inactive) | > 100 µM (inactive) | > 100 µM (inactive) | > 100 | > 100 µM (inactive) | > 100 µM (inactive) | > 100 µM (inactive) | > 100 µM (inactive) | > 100 µM (inactive) | > 100 µM (inactive) | > 100 µM (inactive) | – | > 100 µM (inactive) | –
8 | N#C/C(C(=O)Nc1ccccc1)=C(/N)N1CCOCC1 | > 100 µM (inactive) | – | > 100 µM (inactive) | > 100 µM (inactive) | > 100 µM (inactive) | – | – | > 100 µM (inactive) | – | > 100 | > 100 µM (inactive) | > 100 µM (inactive) | > 100 µM (inactive) | > 100 µM (inactive) | > 100 µM (inactive) | > 100 µM (inactive) | – | > 100 µM (inactive) | > 100 µM (inactive) | > 100 µM (inactive)
9 | CC1(C)OC2CN(C(=O)OCc3ccccc3)C(CO)C2O1 (centres undefined) | > 100 µM (inactive) | > 100 µM (inactive) | > 100 µM (inactive) | > 100 µM (inactive) | > 100 µM (inactive) | > 100 µM (inactive) | > 100 µM (inactive) | > 100 µM (inactive) | > 100 µM (inactive) | > 100 | > 100 µM (inactive) | > 100 µM (inactive) | > 100 µM (inactive) | > 100 µM (inactive) | > 100 µM (inactive) | > 100 µM (inactive) | > 100 µM (inactive) | > 100 µM (inactive) | > 100 µM (inactive) | –
10 | O=C(c1ccc(Cl)cc1)N(C(=S)OC12CC3CC(CC(C3)C1)C2)c1ccccc1 | > 100 µM (inactive) | 54.3 µM (inactive) | 30.7 µM (inactive) | 34 µM (inactive) | 54.5 µM (inactive) | 29.4 µM (inactive) | 32.3 µM (inactive) | – | 37.1 µM (inactive) | 34.6 | 64.7 µM (inactive) | 43.8 µM (inactive) | 31.9 µM (inactive) | 32 µM (inactive) | 76.4 µM (inactive) | 49.5 µM (inactive) | 39.5 µM (inactive) | 42.9 µM (inactive) | – | –
11 | COc1ccc(-c2cc(-c3ccc(Nc4ccnc5cc(C(F)(F)F)ccc45)cc3)nc(N)c2C#N)cc1 | 32.5 µM (inactive) | > 100 µM (inactive) | 34.6 µM (inactive) | 45.1 µM (inactive) | 46.1 µM (inactive) | 99.8 µM (inactive) | > 100 µM (inactive) | – | > 100 µM (inactive) | 60.5 | > 100 µM (inactive) | > 100 µM (inactive) | > 100 µM (inactive) | > 100 µM (inactive) | > 100 µM (inactive) | – | 27.7 µM (inactive) | 31 µM (inactive) | > 100 µM (inactive) | 26.7 µM (inactive)
12 | Oc1[nH]c(Nc2ccc(Cl)c(C(F)(F)F)c2)nc2ncnc1-2 | – | 30.3 µM (inactive) | 26 µM (inactive) | 33 µM (inactive) | 24.5 µM (inactive) | 42.2 µM (inactive) | 33 µM (inactive) | 35.7 µM (inactive) | 52.6 µM (inactive) | > 100 | 24 µM (inactive) | 50.2 µM (inactive) | > 100 µM (inactive) | 40.4 µM (inactive) | 36.1 µM (inactive) | 25.6 µM (inactive) | 72.1 µM (inactive) | 33.9 µM (inactive) | > 100 µM (inactive) | –
